Experimental data taken from PubChem BioAssay (NCI).
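In this assay, cells in 96-well plates receive the compound at five concentrations for 48 hours. Endpoints are linearly interpolated between the surrounding concentrations. TGI is the concentration that stops growth completely.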

Experiments:
Test in all cases: DTP human tumour cell line panel, 48 h
[1] = test system: SF-295 CNS
[2] = test system: CCRF-CEM leukemia
[3] = test system: NCI-H226 lung
[4] = test system: NCI-H23 lung
[5] = test system: UO-31 renal
[6] = test system: LOX IMVI melanoma
[7] = test system: BT-549 breast
[8] = test system: SN12C renal
[9] = test system: HL-60(TB) leukemia
[10] = test system: KM12 colon
[11] = test system: HCT-116 colon
[12] = test system: UACC-257 melanoma
[13] = test system: COLO 205 colon
[14] = test system: RPMI-8226 leukemia
[15] = test system: SF-539 CNS
[16] = test system: A498 renal
[17] = test system: DU-145 prostate
[18] = test system: MDA-MB-231 breast
[19] = test system: OVCAR-8 ovarian
[20] = test system: OVCAR-4 ovarian
[21] = test system: SW-620 colon
[22] = test system: OVCAR-3 ovarian
[23] = test system: MOLT-4 leukemia
[24] = test system: 786-0 renal
[25] = test system: PC-3 prostate
[26] = test system: MDA-N
[27] = test system: SK-MEL-28 melanoma
[28] = test system: EKVX NSCLC
[29] = test system: MDA-MB-435
[30] = test system: CAKI-1 renal
[31] = test system: SK-MEL-2 melanoma
[32] = test system: SK-OV-3 ovarian
[33] = test system: SF-268 CNS
[34] = test system: HCC-2998 colon
[35] = test system: HCT-15 colon
[36] = test system: OVCAR-5 ovarian
[37] = test system: U251 CNS
[38] = test system: NCI-H460 lung
[39] = test system: UACC-62 melanoma
[40] = test system: NCI/ADR-RES ovarian
[41] = test system: SNB-75 CNS
[42] = test system: HOP-92 NSCLC
[43] = test system: TK-10 renal
[44] = test system: HT29 colon
[45] = test system: IGROV1 ovarian
[46] = test system: SNB-19 CNS
[47] = test system: MCF7 breast
[48] = test system: HS 578T breast
[49] = test system: RXF 393 renal
[50] = test system: T-47D breast
[51] = test system: A549 NSCLC
[52] = test system: ACHN renal
[53] = test system: HOP-62 NSCLC
[54] = test system: K-562 leukemia
[55] = test system: M14 melanoma
[56] = test system: SK-MEL-5 melanoma
[57] = test system: MALME-3M melanoma

`Cc1[nH]c2ncn(/N=C/c3ccccc3O)c(=N)c2c1Cc1ccccc1` was tested, and the TGI [1] was > 100 µM, the TGI [2] was > 100 µM and the TGI [3] was > 100 µM. The TGI [4] was > 100 µM, the TGI [5] was > 100 µM and the TGI [6] was > 100 µM. For the same compound, the TGI [7] was > 100 µM, the TGI [8] was > 100 µM and the TGI [9] was 66.8 µM. The TGI [10] was > 100 µM, the TGI [11] was > 100 µM and the TGI [12] was > 100 µM. The TGI [13] was > 100 µM, the TGI [14] was > 100 µM and the TGI [15] was > 100 µM. For the same compound, the TGI [16] was > 100 µM, the TGI [17] was > 100 µM and the TGI [18] was > 100 µM. For the same compound, the TGI [19] was > 100 µM, the TGI [20] was > 100 µM and the TGI [21] was > 100 µM. For the same compound, the TGI [22] was 71.8 µM, the TGI [23] was > 100 µM and the TGI [24] was > 100 µM. For the same compound, the TGI [25] was 46.6 µM, the TGI [26] was 93.8 µM and the TGI [27] was > 100 µM. For the same compound, the TGI [28] was > 100 µM, the TGI [29] was 48.8 µM and the TGI [30] was > 100 µM. The TGI [31] was 83.9 µM, the TGI [32] was > 100 µM and the TGI [33] was > 100 µM. For the same compound, the TGI [34] was 88.7 µM, the TGI [35] was > 100 µM and the TGI [36] was > 100 µM. The TGI [37] was 41.2 µM, the TGI [38] was > 100 µM and the TGI [39] was > 100 µM. The TGI [40] was > 100 µM, the TGI [41] was > 100 µM and the TGI [42] was > 100 µM. The TGI [43] was > 100 µM, the TGI [44] was > 100 µM and the TGI [45] was > 100 µM. For the same compound, the TGI [46] was > 100 µM, the TGI [47] was > 100 µM and the TGI [48] was > 100 µM. For the same compound, the TGI [49] was > 100 µM, the TGI [50] was > 100 µM and the TGI [51] was > 100 µM. The TGI [52] was > 100 µM, the TGI [53] was > 100 µM and the TGI [54] was > 100 µM. For the same compound, the TGI [55] was > 100 µM.

With `CCC(C)[C@H](NC(=O)[C@H](Cc1ccccc1)NC(=O)N(CC)c1ccccc1)C(=O)N[C@@H](CC(C)C)C(=O)OC` (stereo partly drawn) the TGI [1] was > 100 µM, the TGI [2] was 66.7 µM and the TGI [3] was 46.2 µM. The TGI [4] was > 100 µM, the TGI [5] was 67.2 µM and the TGI [6] was > 100 µM. The TGI [7] was > 100 µM, the TGI [8] was > 100 µM and the TGI [10] was 61.3 µM. For the same compound, the TGI [11] was > 100 µM, the TGI [12] was 74.8 µM and the TGI [56] was 59.8 µM. The TGI [13] was > 100 µM, the TGI [14] was 38 µM and the TGI [15] was 93.8 µM. For the same compound, the TGI [16] was > 100 µM, the TGI [17] was > 100 µM and the TGI [18] was > 100 µM. The TGI [19] was > 100 µM, the TGI [20] was > 100 µM and the TGI [21] was > 100 µM. For the same compound, the TGI [22] was > 100 µM, the TGI [23] was 39.7 µM and the TGI [24] was > 100 µM. The TGI [25] was > 100 µM, the TGI [26] was > 100 µM and the TGI [27] was > 100 µM. The TGI [28] was > 100 µM, the TGI [57] was > 100 µM and the TGI [29] was > 100 µM. For the same compound, the TGI [30] was > 100 µM, the TGI [31] was > 100 µM and the TGI [32] was > 100 µM. For the same compound, the TGI [33] was > 100 µM, the TGI [34] was > 100 µM and the TGI [35] was > 100 µM. The TGI [36] was > 100 µM, the TGI [37] was > 100 µM and the TGI [39] was > 100 µM. For the same compound, the TGI [40] was > 100 µM, the TGI [41] was > 100 µM and the TGI [42] was > 100 µM. The TGI [43] was > 100 µM, the TGI [45] was 61.5 µM and the TGI [46] was > 100 µM. The TGI [47] was > 100 µM, the TGI [48] was > 100 µM and the TGI [49] was > 100 µM. The TGI [50] was > 100 µM, the TGI [51] was > 100 µM and the TGI [52] was 72.7 µM. For the same compound, the TGI [53] was > 100 µM and the TGI [55] was > 100 µM.
